Experiment [1] concerns Saccharomyces cerevisiae. The experiment is described as follows: Tested for the kinetic parameter relative Kcat on Dolichyl phosphate mannose synthase.
The subject of experiment [2] is Saccharomyces cerevisiae. The experiment is described as follows: Tested for the kinetic constant (Km) against the enzyme Dolichyl phosphate mannose synthase.

K cat and Km data for 1 compound are collected here from ChEMBL document CHEMBL1133142, “Synthesis of dolichyl phosphate derivatives with fluorescent label at the omega-end of the chain, new tools to study protein glycosylation” (Bioorg Med Chem Lett, 2000).

Molecules are shown by their SMILES.

In the case of `C/C(=C\CC/C(C)=C/CC/C(C)=C/CC/C(C)=C/CC/C(C)=C/CC/C(C)=C/CC/C(C)=C/CCC(C)CCOP(=O)(O)O)CC/C=C(\C)CC/C=C(\C)CC/C=C(\C)CC/C=C(\C)CC/C=C(\C)CC/C=C(\C)CC/C=C(\C)CCCNc1cccc2ccccc12` (configuration not stated), the k cat with Saccharomyces cerevisiae [1] was 1.27. Further, in the experiment on Saccharomyces cerevisiae [2], the Km turned out to be 11.7 µM.
